Laboratory results as given in patent US4672036A, “Pure cultures of Kibdelsporangium aridum Shearer gen. nov., sp. nov. ATCC 39323 and mutants thereof” (SmithKline Beckman Corporation, priority 1985, dated 1987).
In brackets after ≈: the same amount, converted by molar mass. Several values for one entry are separate records, joined by “and”; a condition that tells them apart may be missing. Equal entries are not always repeated. Where two headings read alike, the source gives them in different places. Where a SMILES comes first, the peptide text is derived from it. Bridges are numbered along the chain shown (N, C = ends). [ ]: non-standard residue; d: D form. The star is where a group is joined. Ileψ(thiazoline)Cys = CC[C@H](C)[C@H](N)C1=N[C@H](C(=O)*)CS1; dOrn = NCCC[C@@H](N)C(=O)O

How the values were obtained:
[1] = system: Strep. faecilis HH34358; type: cell-based; details: Table A
[2] = system: Proteus mirabilis SK & F 444; type: cell-based; details: Table A
[3] = system: E. coli 12140 (SK & F 809); type: cell-based
[4] = system: Kleb. pneumoniae 4200 (SK & F 798); type: cell-based; details: Table A
[5] = system: Pseudomonas aeruginosa HH63; type: cell-based; details: Table A
[6] = system: Serratia marcesens ATCC 13880; type: cell-based; details: Table A
[7] = system: Proteus morgani SK & F 179; type: cell-based; details: Table A
[8] = system: Providencia SK & F 276; type: cell-based; details: Table A
[9] = system: Enterobacter cloacae HH31254; type: cell-based; details: Table A
[10] = system: Listeria monocytogenes SK & F 2255; type: cell-based; details: Table A
[11] = system: Staph. aureus SK & F 2613; type: cell-based; details: Table B, Methicillin Sensitive
[12] = system: Bacteroides fragilis ATCC 25285; type: cell-based; details: Table D, Anaerobes
[13] = system: B. fragilis H145; type: cell-based, Bacteroides fragilis; details: Table D, Anaerobes
[14] = system: B. fragilis SK & F 3060; type: cell-based, Bacteroides fragilis; details: Table D, Anaerobes
[15] = system: B. loeochii SK & F 3087; type: cell-based; details: Table D, Anaerobes
[16] = system: B. thetaiotamicron SK & F 3089; type: cell-based; details: Table D, Anaerobes
[17] = system: Fusobacterium nucleatum ATCC 25586; type: cell-based; details: Table D, Anaerobes
[18] = system: Swine in vitro model; assay: swine in vitro model (growth promotant activity)
[19] = system: rumen in vitro model; assay: rumen in vitro model (growth promotant activity); design: species or system steer
Protocol: The protocol for the rumen in vitro model is analogous to the protocol for the swine in vitro model with the following modifications:
(1) A 400 kg steer is surgically prepared with a rumen cannula.
(2) The animal is fed one time a day with the following ration:
(3) Manipulation of VFA production is described as the production ratio of propionate as a percentage of total VFA produced.
(4) Sampling of the material, via the cannula, is at 120 minutes post feeding.

[20] = solubility; type: physicochemical
[21] = system: Salmonella gallinarum BC595
[22] = system: Clostridium perfringens MCP-1; details: Table D, Anaerobes
[23] = system: C. perfringens MCP-2; details: Table D, Anaerobes
[24] = system: rumen in vitro model; assay: rumen in vitro model (growth promotant activity); design: species or system steer; remark: listed apart in the source
[25] = system: Staph. aureus 209P-Mutant; assay: microbe, parasite or virus in culture; type: cell-based; details: Table E
[26] = system: Staph. aureus SK & F 674-P6 Mutant; assay: microbe, parasite or virus in culture; type: cell-based; details: Table E
[27] = system: Staph. epidermidis SK & F 2683; type: cell-based; details: Table E
[28] = system: Staph. epidermidis SK & F 2265; type: cell-based; details: Table E
[29] = system: Strep. faecalis SK & F 657; type: cell-based; details: Table E
[30] = system: K. aridum; assay: susceptibility of K. aridum to antibiotics, disk diffusion method; type: cell-based, Kibdelosporangium aridum
Protocol: Susceptibility of K. aridum to antibiotics was examined by placing BBL susceptibility disks on nutrient agar plates seeded with K. aridum as an overlay. Diameters of the zones of inhibition were measured after incubation for one week at 28° C.
Chlortetracycline ([…]) produced 18 mm zones of inhibition; tetracycline (5 μg) 11-12 mm zones; rifampin (5 μg) 11-15 mm zones; novobiocin (5 μg) 27-28 mm zones. All zones of inhibition contained at least a few resistant colonies.

[31] = H2O, methanol, dimethylsulfoxide, dimethylformamide
[32] = ethanol, acetonitrile, acetone, diethylether, aliphatic hydrocarbons

For `CN[C@H]1C(=O)N[C@H]2C(=O)N[C@H](C(=O)N[C@H]3C(=O)N[C@H]4C(=O)N[C@H](C(=O)N[C@H](C(=O)O)c5cc(O)cc(O[C@H]6O[C@H](CO)[C@@H](O)[C@H](O)[C@@H]6O)c5-c5cc4ccc5O)[C@H](O)c4cc(Cl)c(c(Cl)c4)Oc4cc3cc(c4O[C@@H]3O[C@H](C(=O)O)[C@@H](O)[C@H](O)[C@H]3NC(=O)CCCCCCCCC(C)C)Oc3ccc(cc3Cl)[C@H]2O)c2cc(cc(O)c2Cl)Oc2cc1ccc2O`, the MIC [1] was 0.8 µg/mL (≈ 0.44 µM), the MIC [2] was > 100 µg/mL and the MIC ([3]; Table A) was > 100 µg/mL. For the same compound, the MIC [4] was > 100 µg/mL, the MIC [5] was > 100 µg/mL and the MIC [6] was > 100 µg/mL. For the same compound, the MIC [7] was > 100 µg/mL, the MIC [8] was > 100 µg/mL and the MIC [9] was > 100 µg/mL. The MIC [10] was ~ 0.4 μg/ml, the MIC [11] was 1.6 µg/mL (≈ 0.88 µM) and the MIC [12] was 32 µg/mL (≈ 17.6 µM). For the same compound, the MIC [13] was 8 µg/mL (≈ 4.4 µM), the MIC [14] was 16 µg/mL (≈ 8.8 µM) and the MIC [15] was 4 µg/mL (≈ 2.2 µM). The MIC [16] was 32 µg/mL (≈ 17.6 µM), the MIC [17] was 32 µg/mL (≈ 17.6 µM) and the “GLU (glucose)” value [18] was 191 % Control and 188 % Control and 96 % Control. The Propionate % [19] was 120 % Control, the “VFA (total of volatile fatty acids)” value [19] was 111 % Control and the solubility [20, 31] was “soluble”. The solubility [20, 32] was “insoluble”, the MIC ([21]; Table A) was > 100 µg/mL and the MIC [22] was ≤ 0.016 µg/mL. The MIC [23] was ≤ 0.016 µg/mL and the “LYS (lysine)” value [24] was 110 % Control and 103 % Control.

With `CCCCCCCCCC(=O)N[C@H]1[C@H](Oc2c3cc4cc2Oc2c(Cl)cc(cc2Cl)[C@@H](O)[C@@H]2NC(=O)[C@H](NC(=O)[C@@H]4NC(=O)[C@H]4NC(=O)[C@H](NC(=O)[C@H](NC)c5ccc(O)c(c5)Oc5cc(O)c(Cl)c4c5)[C@H](O)c4ccc(c(Cl)c4)O3)c3ccc(O)c(c3)-c3c(O[C@H]4O[C@H](CO)[C@@H](O)[C@H](O)[C@@H]4O)cc(O)cc3[C@@H](C(=O)O)NC2=O)O[C@H](C(=O)O)[C@@H](O)[C@@H]1O` [AAD 216A] the MIC [2] was > 100 µg/mL, the MIC ([3]; Table A) was > 100 µg/mL and the MIC ([3]; Table E) was > 100 µg/mL. The MIC [4] was > 100 µg/mL, the MIC [5] was > 100 µg/mL and the MIC [6] was > 100 µg/mL. The MIC [7] was > 100 µg/mL, the MIC [8] was > 100 µg/mL and the MIC [9] was > 100 µg/mL. The MIC [12] was 32 µg/mL (≈ 17.9 µM), the MIC [14] was 32 µg/mL (≈ 17.9 µM) and the MIC [16] was > 32 µg/mL. For the same compound, the MIC [17] was 32 µg/mL (≈ 17.9 µM), the MIC [25] was 100 µg/mL (≈ 55.9 µM) and the MIC [26] was ~ 100 μg/ml. It also gave an MIC [27] of 100 µg/mL (≈ 55.9 µM), an MIC [28] of 100 µg/mL (≈ 55.9 µM) and an MIC [29] of 0.8 µg/mL (≈ 0.447 µM). For the same compound, the “GLU (glucose)” value [18] was 187 % Control and 191 % Control, the “LYS (lysine)” value [18] was 63 % Control and 50 % Control and 94 % Control and the “VFA (total of volatile fatty acids)” value [19] was 111 % Control and 94 % Control. For the same compound, the solubility [20, 31] was “soluble”, the solubility [20, 32] was “insoluble” and the MIC ([21]; Table A) was > 100 µg/mL. The MIC ([21]; Table E) was > 100 µg/mL and the “LYS (lysine)” value [24] was 114 % Control.

Compound `CN(C)[C@@H]1C(O)=C(C(N)=O)C(=O)[C@@]2(O)C(O)=C3C(=O)c4c(O)ccc(Cl)c4[C@@](C)(O)[C@H]3C[C@@H]12` [Chlortetracycline] has a zone of inhibition at 5 µg/disc ([30]; Kibdelosporangium aridum, 168 h) of 18 mm.

For `CC[C@@]1([C@H]2O[C@H]([C@H]3O[C@@](O)(CO)[C@H](C)C[C@@H]3C)C[C@H]2C)CC[C@H]([C@@]2(C)CC[C@]3(C[C@H](O)[C@@H](C)[C@@H]([C@H](C)[C@H](OC)[C@@H](C)C(=O)O)O3)O2)O1` [Monensin Sodium], the Propionate % [19] was 156 % Control and 149 % Control and 119 % Control, the “VFA (total of volatile fatty acids)” value [19] was 104 % Control and 94 % Control and the “LYS (lysine)” value [24] was 147 % Control and 141 % Control.

With `CC[C@H](C)[C@H](N)C1=N[C@H](C(=O)N[C@@H](CC(C)C)C(=O)N[C@H](CCC(=O)O)C(=O)N[C@H](C(=O)N[C@H]2CCCCNC(=O)[C@H](CC(N)=O)NC(=O)[C@@H](CC(=O)O)NC(=O)[C@H](Cc3cnc[nH]3)NC(=O)[C@@H](Cc3ccccc3)NC(=O)[C@H]([C@@H](C)CC)NC(=O)[C@@H](CCCN)NC2=O)[C@@H](C)CC)CS1` [bacitracin] ({Ileψ(thiazoline)Cys}-L[dE]IK[dOrn]I[dF]H[dD]N; lactam 4-C) the “susceptibility of K. aridum” value ([30]; disk 2 units) was “resistant”.

In the case of `CC(=O)OCC1=C(C(=O)O)N2C(=O)[C@@H](NC(=O)Cc3cccs3)[C@H]2SC1` [cephalothin], the “susceptibility of K. aridum” value ([30]; disk 30 μg) is reported as “resistant”.

For `CCC[C@@H]1C[C@@H](C(=O)N[C@@H]([C@H]2O[C@H](SC)[C@H](O)[C@@H](O)[C@H]2O)[C@H](C)Cl)N(C)C1` [clindamycin], the “susceptibility of K. aridum” value ([30]; disk 2 μg) was “resistant”.

In the case of `CCC[C@@H]1C[C@@H](C(=O)N[C@@H]([C@H]2O[C@H](SC)[C@H](O)[C@@H](O)[C@H]2O)[C@@H](C)O)N(C)C1` [lincomycin], the “susceptibility of K. aridum” value ([30]; disk 2 μg) is reported as “resistant”.
